Laboratory results taken from ChEMBL document CHEMBL1143727, “Terpenoids from the medicinal plant Maytenus ilicifolia” (J Nat Prod, 2007).
Active and inactive are the calls of the source. The calls are words filed in the database; no cut-off is given here.

Each compound was assayed on Saccharomyces cerevisiae (assay: Antimicrobial activity against DNA damage check point deffective Saccharomyces cerevisiae mutants).
Format: functional, organism-based

Row | Structure (SMILES) | Activity
1 | C=C(C)C1CCC(C)[C@@]23CC=C(C)[C@]2(C1)Oc1cc2c(c(C)c1O3)C(=O)C=C1[C@@]2(C)CC[C@@]2(C)C3C[C@@H](C)C(=O)C[C@]3(C)CC[C@]12C (some centres undefined) | inactive
2 | C=C(C)C1CCC(C)[C@@]23CC=C(C)[C@]2(C1)Oc1c(cc2c(c1C)C=CC1[C@@]2(C)CC[C@@]2(C)C4C[C@@H](C)C(=O)C[C@]4(C)CC[C@]12C)O3 (some centres undefined) | inactive
3 | COC(=O)[C@]1(C)CC[C@](C)(CC[C@]2(C)C(/C=C\c3ccc4c(c3C)O[C@]3(O)C(=O)C=C5C(=CC=C6[C@@]5(C)CC[C@@]5(C)C7C[C@@H](C)C(=O)C[C@]7(C)CC[C@]65C)[C@]3(C)O4)[C@@H](C)CC[C@@H]2C)CC1 (some centres undefined) | inactive
4 | COc1cc(C(=O)Oc2c(O)cc3c(c2C)C(O)CC2[C@@]3(C)CC[C@@]3(C)C4C[C@@H](C)C(=O)C[C@]4(C)CC[C@]23C)ccc1O (some centres undefined) | inactive
